In ChEMBL document CHEMBL5223133, “A review of MMP-2 structures and binding mode analysis of its inhibitors to strategize structure-based drug design” (Bioorg Med Chem, 2022):
Values belong to the molecule of their own block, whether it stands above or below them. Calls of active or inactive are those of the source. The calls are words filed in the database; no cut-off is given here.

Tests used:
[1] = target: Matrix metalloproteinase-9 (Homo sapiens) (UniProt P14780); test: Inhibition of MMP9 (unknown origin) gelatinase activity at 5 to 20 uM incubated for 24 hrs by modified zymography assay; settings: dose 5-20 µM
Chain of Matrix metalloproteinase-9 (Homo sapiens) (P14780 whole entry): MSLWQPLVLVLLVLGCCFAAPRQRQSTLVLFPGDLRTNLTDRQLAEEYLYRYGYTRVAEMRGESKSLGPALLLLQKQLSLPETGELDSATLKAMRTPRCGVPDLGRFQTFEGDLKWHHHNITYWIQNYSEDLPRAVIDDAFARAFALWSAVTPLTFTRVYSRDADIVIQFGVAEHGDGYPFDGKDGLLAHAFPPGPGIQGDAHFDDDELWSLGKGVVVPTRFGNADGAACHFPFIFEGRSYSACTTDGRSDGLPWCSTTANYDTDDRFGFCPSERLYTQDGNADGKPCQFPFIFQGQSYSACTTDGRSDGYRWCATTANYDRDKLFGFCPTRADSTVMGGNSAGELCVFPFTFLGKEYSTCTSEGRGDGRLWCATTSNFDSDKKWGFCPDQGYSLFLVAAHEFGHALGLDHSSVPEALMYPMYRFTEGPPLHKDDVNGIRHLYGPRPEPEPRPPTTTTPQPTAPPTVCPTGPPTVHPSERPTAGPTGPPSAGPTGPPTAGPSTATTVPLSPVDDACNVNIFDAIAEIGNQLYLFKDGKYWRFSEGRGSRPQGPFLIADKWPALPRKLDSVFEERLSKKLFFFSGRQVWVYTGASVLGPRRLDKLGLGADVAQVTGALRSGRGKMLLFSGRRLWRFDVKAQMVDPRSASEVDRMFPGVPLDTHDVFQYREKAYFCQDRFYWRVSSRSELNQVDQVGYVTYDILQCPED

[2] = target: Matrix metalloproteinase-9 (Homo sapiens) (UniProt P14780); test: Inhibition of MMP9 (unknown origin) gelatinase activity at >= 7.5 uM incubated for 24 hrs by modified zymography assay
[3] = target: T1, 72 kDa type IV collagenase (Homo sapiens, UniProt P08253); test: Inhibition of MMP2 (unknown origin) gelatinase activity at >= 7.5 uM incubated for 24 hrs by modified zymography assay
Target sequence in this assay (P08253 110-660 limits assumed): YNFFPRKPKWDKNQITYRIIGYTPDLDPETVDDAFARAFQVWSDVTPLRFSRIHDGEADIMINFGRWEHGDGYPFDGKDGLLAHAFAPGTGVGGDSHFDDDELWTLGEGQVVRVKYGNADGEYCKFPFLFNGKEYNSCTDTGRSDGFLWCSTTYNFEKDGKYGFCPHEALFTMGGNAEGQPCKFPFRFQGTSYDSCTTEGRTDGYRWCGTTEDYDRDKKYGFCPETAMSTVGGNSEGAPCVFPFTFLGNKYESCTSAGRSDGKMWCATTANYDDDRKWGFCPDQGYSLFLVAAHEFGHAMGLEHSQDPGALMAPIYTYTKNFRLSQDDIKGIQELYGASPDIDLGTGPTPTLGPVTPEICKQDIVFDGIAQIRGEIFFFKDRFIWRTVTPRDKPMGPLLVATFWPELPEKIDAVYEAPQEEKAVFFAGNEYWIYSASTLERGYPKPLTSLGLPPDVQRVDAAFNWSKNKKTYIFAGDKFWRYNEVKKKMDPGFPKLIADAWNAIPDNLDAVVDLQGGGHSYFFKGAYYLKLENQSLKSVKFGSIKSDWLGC

[4] = target: T1, 72 kDa type IV collagenase; test: Inhibition of MMP2 (unknown origin) gelatinase activity at 5 to 20 uM incubated for 24 hrs by modified zymography assay; settings: dose 5-20 µM
Target sequence in this assay (P08253 110-660 limits assumed): as above

[5] = target: T1, 72 kDa type IV collagenase; test: Inhibition of MMP2 (unknown origin)
Target sequence in this assay (P08253 whole entry): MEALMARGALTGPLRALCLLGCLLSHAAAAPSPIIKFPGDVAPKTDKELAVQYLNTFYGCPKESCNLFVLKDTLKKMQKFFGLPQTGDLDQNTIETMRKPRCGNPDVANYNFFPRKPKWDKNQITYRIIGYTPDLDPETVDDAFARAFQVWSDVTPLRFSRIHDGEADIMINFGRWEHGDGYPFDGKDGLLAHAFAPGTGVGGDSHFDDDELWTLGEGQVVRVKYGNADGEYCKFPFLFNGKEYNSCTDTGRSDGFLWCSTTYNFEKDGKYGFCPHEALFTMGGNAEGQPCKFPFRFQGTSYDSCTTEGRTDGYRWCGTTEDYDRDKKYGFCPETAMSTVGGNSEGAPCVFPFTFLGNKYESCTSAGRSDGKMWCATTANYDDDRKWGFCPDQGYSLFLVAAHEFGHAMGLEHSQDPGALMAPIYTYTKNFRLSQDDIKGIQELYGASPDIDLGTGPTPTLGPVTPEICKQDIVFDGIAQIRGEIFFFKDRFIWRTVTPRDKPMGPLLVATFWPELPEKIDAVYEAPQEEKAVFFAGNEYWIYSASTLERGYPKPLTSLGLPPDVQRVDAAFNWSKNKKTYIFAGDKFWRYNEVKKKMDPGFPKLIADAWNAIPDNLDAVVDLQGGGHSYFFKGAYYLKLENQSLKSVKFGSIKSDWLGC

[6] = system: A549; test: Anticancer activity against human A549 cells assessed as cell survival measured after 48 hrs by MTT assay; assay type: functional, cell-based; settings: A549, 48 h
[7] = target: T1, 72 kDa type IV collagenase; test: Inhibition of human MMP2
Target sequence in this assay (P08253 whole entry): as above

Structure (SMILES): c1cc2nc(c1)CNCCNCCCNCCNC2
inhibition [1]: Active | inhibition [2]: 100% | inhibition [3]: 100% | inhibition [4]: Active

Structure (SMILES): N#Cc1ccc(Oc2ccc(S(=O)(=O)N3CCc4c([nH]c5ccccc45)C3C(=O)NO)cc2)cc1 (stereo unspecified)
IC50 [5]: 150 nM

Structure (SMILES): O=C(NO)C1CN(C(=O)c2ccccc2)CCCN1C(=O)/C=C/c1ccc(O)c(O)c1 (stereo unspecified)
IC50 [6]: 8200 nM

Structure (SMILES): CCCCCCCC/C=C\CCCCCCCC(=O)NNC(=O)[C@H](Cc1cc2ccccc2[nH]1)NC(=O)[C@@H](CC(=O)NO)CC(C)C
IC50 [7]: 27 nM

Structure (SMILES): CCCCCCCC/C=C/CCCCCCCC(=O)O [ELAIDIC ACID]
IC50 [7]: 2000 nM

Structure (SMILES): c1cc2nc(c1)CNCCNCCNCCNC2
inhibition [1]: Active | inhibition [2]: 100% | inhibition [3]: 100% | inhibition [4]: Active

Continued, values first:

IC50 [5]: 9300 nM
Structure (SMILES): Cc1cc(=O)c(O)c(C(=O)NCc2ccc(-c3ccc(C#N)cc3)cc2)o1

IC50 [5]: 36 nM
Structure (SMILES): CNC(=O)[C@@H](NC(=O)c1ccc(-c2ccc(OCc3ccn[nH]3)cn2)o1)C1CCCCC1

IC50 [5]: 5000 nM
Structure (SMILES): O=C(NCc1ccco1)Nc1c[nH]c2cccnc2c1=O

IC50 [5]: 610 nM
Structure (SMILES): Cc1cc(=O)c(O)c(C(=O)NCc2ccc(-c3ccccc3)cc2)o1
